Data from patent US20080096894A1, “Anti-Bacterial Compounds” (ASTON UNIVERSITY, priority 2005, published 2008).
Values after ≈ are worked out from the molar mass of the structure shown. Like-named read-outs stand apart in the source and are kept apart here. One block for each molecule: values may come before it.

How the values were obtained:
Salmonella enteriditis = experiment: MIC, doubling dilution in 96-well microtitre plate; assay type: cell-based
Outline: (§1)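 MIC is the lowest compound concentration at which no growth button was visible from underneath the plate after overnight incubation at 37° C, following inoculation with medium containing 10^6 cfu/mL of organism.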

Bacillus megarerium [1] = experiment: MIC, doubling dilution in 96-well microtitre plate; assay type: cell-based
Outline: as §1

Moraxella catarrhalis = experiment: MIC, doubling dilution in 96-well microtitre plate; assay type: cell-based
Outline: as §1

Enterococcus faecium = experiment: MIC, doubling dilution in 96-well microtitre plate; assay type: cell-based; conditions: Enterococcus faecium ATCC 10541
Outline: as §1

Hafnia alvei = experiment: MIC, doubling dilution in 96-well microtitre plate; assay type: cell-based
Outline: as §1

[2] = system: Escherichia coli olli-blue; experiment: MIC, doubling dilution in 96-well microtitre plate; assay type: cell-based
Outline: as §1

Salmonella Cambridge = experiment: MIC, doubling dilution in 96-well microtitre plate; assay type: cell-based
Outline: as §1

Micrococcus roseus [3] = experiment: MIC, doubling dilution in 96-well microtitre plate; assay type: cell-based
Outline: as §1

[4] = system: Citrobacter diversus 2046E; experiment: MIC, doubling dilution in 96-well microtitre plate; assay type: cell-based
Outline: as §1

Citrobacter freundii = experiment: MIC, doubling dilution in 96-well microtitre plate; assay type: cell-based
Outline: as §1

[5] = system: Enterobacter cloacae ATCC 13047; experiment: MIC, doubling dilution in 96-well microtitre plate; assay type: cell-based
Outline: as §1

[6] = system: Staphylococcus aureus NCTC 10788; experiment: MIC, doubling dilution in 96-well microtitre plate; assay type: cell-based
Outline: as §1

[7] = system: Enterococcus faecalis NCTC 5957; experiment: MIC, doubling dilution in 96-well microtitre plate; assay type: cell-based
Outline: as §1

[8] = system: Streptococcus bovis NCTC 11436; experiment: MIC, doubling dilution in 96-well microtitre plate; assay type: cell-based
Outline: as §1

[9] = system: Pseudomonas aeruginosa ATCC 15692 (PA01); experiment: MIC, doubling dilution in 96-well microtitre plate; assay type: cell-based
Outline: as §1

[10] = system: Staphylococcus aureus NCTC 6571; experiment: MIC, doubling dilution in 96-well microtitre plate; assay type: cell-based
Outline: as §1

Bacillus subtilis = experiment: MIC, doubling dilution in 96-well microtitre plate; assay type: cell-based
Outline: as §1

[11] = system: Staphylococcus aureus (MRSA) 96-7475; experiment: MIC, doubling dilution in 96-well microtitre plate; assay type: cell-based
Outline: as §1

[12] = system: Staphylococcus aureus W11 MRSA; experiment: MIC, doubling dilution in 96-well microtitre plate; assay type: cell-based
Outline: as §1

Micrococcus luteus = experiment: MIC, doubling dilution in 96-well microtitre plate; assay type: cell-based
Outline: as §1

Bacillus megarerium [13] = experiment: MIC, agar dilution, multipoint inoculator; assay type: cell-based
Description: (§2) This activity was measured using a multipoint inoculator method as follows. The MIC for each compound was measured using an agar dilution method (Onda, H., et al., Int. J. Antimicrob. Agents. 18, 263 (2001)) (Mueller Hinton agar) by means of a multipoint inoculator delivering 10^4 colony forming units per spot.
(§3) 4Pycq was also tested against the following bacteria, using the multipoint inoculator method.

Micrococcus roseus [14] = experiment: MIC, agar dilution, multipoint inoculator; assay type: cell-based; conditions: Kocuria rosea
Description: as §2, §3

Bacillus cereus = experiment: MIC, agar dilution, multipoint inoculator; assay type: cell-based
Description: as §2, §3

Bacillus polymyxa = experiment: MIC, agar dilution, multipoint inoculator; assay type: cell-based; conditions: Paenibacillus polymyxa
Description: as §2, §3

S. haemolyticus = experiment: MIC, agar dilution, multipoint inoculator; assay type: cell-based; conditions: Staphylococcus haemolyticus, 18 h; S. haemolyticus Isolate 1; upper value of MIC reading; read-out: MIC
Outline: (§4)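 Compounds were serially incorporated into Mueller Hinton agar, then each strain was spotted by multipoint inoculator at 10^4 colony forming units per spot. MIC was determined from the dilution series.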

E. faecalis = experiment: MIC, agar dilution, multipoint inoculator; assay type: cell-based; conditions: Enterococcus faecalis, upper value of MIC reading, read-out: MIC
Outline: as §4

[15] = system: vancomycin resistant enterococci; experiment: MIC, agar dilution, multipoint inoculator; assay type: cell-based; conditions: one value printed for the seven vancomycin resistant enterococci cultures of Table 5; read-out: MIC
Description: as §2
It will be noted that compound 4PYcq was active against all strains of MRSA as well as all other Gram positive bacteria. For this reason it was further tested against some vancomycin resistant enterococci, using the multipoint inoculator method described above. It can be seen from Table 5 that the high level activity was retained.

[16] = system: human mononuclear leucocytes (MNL, white blood cells); experiment: direct leucocyte toxicity, tryptan blue exclusion, 18 hours; assay type: cell-based
Description: The in vitro assay used human mononuclear leucocytes (MNL, white blood cells) which were incubated with the test compound for 18 hours and cell death determined by tryptan blue exclusion (tryptan blue is a dye, which stains dead cells, whilst living cells extrude it).
The toxicity of 4PYcq and the aldehyde cq and pyridine-4-carboxamidrazone precursors were assessed using the same in vitro assay with human mononuclear leucocytes as that described above. The toxicity of related compounds, 2-hydroxybenzylidene-pyridine-2-carboxamidrazone 4PYbw and benzylidenepyridine-2-carboxamidrazone 4PYaa were also examined.

E. faecium = experiment: MIC, agar dilution, multipoint inoculator; assay type: cell-based, Enterococcus faecium; conditions: Enterococcus faecium, upper value of MIC reading, read-out: MIC
Outline: as §4

S. epidemisis = experiment: MIC, agar dilution, multipoint inoculator; assay type: cell-based, Staphylococcus epidermidis; conditions: Staphylococcus epidermidis, upper value of MIC reading, read-out: MIC
Outline: as §4

Structure (SMILES): NC(=NN=Cc1ccc([N+](=O)[O-])o1)c1cc[n+]([O-])cc1 (mixture of isomers) [Compound 4PYOfi]
- MIC (Salmonella enteriditis): 32 to 64 µg/mL
- MIC (Bacillus megarerium [1]): 8 to 16 µg/mL
- MIC (Moraxella catarrhalis): 16 to 32 µg/mL
- MIC (Enterococcus faecium): 8 to 16 µg/mL
- MIC (Hafnia alvei): 32 to 64 µg/mL
- MIC [2]: 16 to 32 µg/mL
- MIC (Salmonella Cambridge): 16 to 32 µg/mL
- MIC (Micrococcus roseus [3]): 8 to 16 µg/mL
- MIC [4]: 32 to 64 µg/mL
- MIC (Citrobacter freundii): 32 to 64 µg/mL
- MIC [5]: 32 to 64 µg/mL
- MIC [6]: 4 to 8 µg/mL
- MIC [7]: 4 to 8 µg/mL
- MIC [8]: 4 to 8 µg/mL
- MIC [9]: 32 to 64 µg/mL
- MIC [10]: 4 to 8 µg/mL
- MIC (Bacillus subtilis): 8 to 16 µg/mL
- MIC [11]: 4 to 8 µg/mL
- MIC [12]: 4 to 8 µg/mL
- MIC (Micrococcus luteus): 8 to 16 µg/mL

- MIC (Bacillus megarerium [13]): 0.5 to 1 µg/mL (≈ 1.42 to 2.84 µM)
- MIC (Micrococcus roseus [14]): 0.5 to 1 µg/mL (≈ 1.42 to 2.84 µM)
- MIC (Bacillus cereus): 2 to 4 µg/mL (≈ 5.67 to 11.3 µM)
- MIC (Bacillus polymyxa): 2 to 4 µg/mL (≈ 5.67 to 11.3 µM)
- MIC (E. faecalis; 18 h, E. faecalis EBH1): 4 µg/mL (≈ 11.3 µM)
- MIC (E. faecalis; 18 h, E. faecalis Isolate 1): 4 µg/mL (≈ 11.3 µM)
- MIC (E. faecalis; 18 h, E. faecalis Isolate 2): 4 µg/mL (≈ 11.3 µM)
- MIC (E. faecalis; 18 h, E. faecalis Isolate 4): 4 µg/mL (≈ 11.3 µM)
- MIC (E. faecalis; 18 h, E. faecalis Isolate 5): 4 µg/mL (≈ 11.3 µM)
- MIC (E. faecalis; NCTC5957, 18 h, E. faecalis NCTC 5957): 4 µg/mL (≈ 11.3 µM)
- MIC [15]: 2 to 4 µg/mL (≈ 5.67 to 11.3 µM)
- MIC (E. faecium; 18 h, E. faecium ACTCC 10541): 4 µg/mL (≈ 11.3 µM)
- MIC (E. faecium; NCTC7171, 18 h, E. faecium NCTC 7171): 4 µg/mL (≈ 11.3 µM)
- MIC (S. epidemisis; 18 h, S. epidemisis Isolate 1): 4 µg/mL (≈ 11.3 µM)
- MIC (S. epidemisis; NCTC11047, 18 h, S. epidemisis NCTC 11047): 4 µg/mL (≈ 11.3 µM)
Structure (SMILES): CC(C)(C)c1cc(/C=N/N=C(\N)c2ccncc2)c(O)c(C(C)(C)C)c1 [Compound 4PYcq]
- MIC (S. haemolyticus): 4 µg/mL (≈ 11.3 µM)
- direct MNL toxicity (in words) [16]: very toxic to leucocytes
